Experimental data reported in patent publication US8536202B2, “Triazole-substituted anthranilamides as pesticides” (Bayer Cropscience AG, priority 2010, dated 2013).

What was measured:
[1] = log P determination by HPLC on reversed-phase columns (EEC Directive 79/831 Annex V.A8); type: physicochemical; settings: pH 2.7
Outline: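 log P from reversed-phase LC-MS retention at pH 2.7, 0.1% formic acid water/acetonitrile gradient 10–95% acetonitrile. Calibrated against C3–C16 unbranched alkan-2-ones, interpolating linearly between adjacent alkanones.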

[2] = test system: larvae of the mustard beetle (Phaedon cochleariae); assay: Phaedon test (PHAECO spray treatment); type: in vivo; settings: 168 h, 100 g/ha, after 7 days, read-out: activity in %
Outline: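 Compound dissolved in acetone/dimethylformamide with alkylaryl polyglycol ether emulsifier, then diluted with emulsifier-containing water to test concentration for spray treatment of Phaedon cochleariae larvae. Activity scored after 7 days as % larvae killed (100% = all dead, 0% = none).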

[3] = test system: caterpillars of the armyworm (Spodoptera frugiperda); assay: Spodoptera frugiperda test (SPODFR spray treatment); type: in vivo; settings: 168 h, 100 g/ha, after 7 days, read-out: activity in %
Outline: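 Maize leaf discs sprayed with compound diluted in emulsifier-containing water (acetone/DMF solvent, alkylaryl polyglycol ether emulsifier), dried, then infested with armyworm caterpillars. Kill scored after 7 days as % mortality, 100% = all caterpillars dead, 0% = none.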

SMILES | chromatographic logP [1] | pest or weed control at 100 g/ha [2] [%] | pest or weed control at 100 g/ha [3] [%]
CCNC(=O)c1cc(I)cc(C)c1NC(=O)c1cc(Cn2ncc(C(F)(F)F)n2)nn1-c1ncccc1Cl [Example 160] | 3.5 | 100 | 100
Cc1cc(I)cc(C(=O)NC(C)C)c1NC(=O)c1cc(Cn2ncc(C(F)(F)F)n2)nn1-c1ncccc1Cl [Example 161] | 3.73 | 100 | 100
Cc1cc(I)cc(C(=O)NCC2CC2)c1NC(=O)c1cc(Cn2ncc(C(F)(F)F)n2)nn1-c1ncccc1Cl [Example 163] | 3.8 | 100 | 100
CNC(=O)c1cc(F)cc(C)c1NC(=O)c1cc(Cn2ncc(C(F)(F)F)n2)nn1-c1ncccc1Cl [Example 167] | 2.63 | 100 | 100
Cc1cc(F)cc(C(=O)NC(C)C2CC2)c1NC(=O)c1cc(Cn2ncc(C(F)(F)F)n2)nn1-c1ncccc1Cl (stereo not drawn) [Example 168] | 3.36 | 100 | 100
Cc1cc(F)cc(C(=O)NC2CC2)c1NC(=O)c1cc(Cn2ncc(C(F)(F)F)n2)nn1-c1ncccc1Cl [Example 169] | 2.86 | 100 | 100
Cc1cc(Br)cc(C(=O)NC(C)(C)C)c1NC(=O)c1cc(Cn2ncc(C(F)(F)F)n2)nn1-c1ncccc1Cl [Example 176] | 4.65 | 100 | 100
CSC[C@H](C)NC(=O)c1cc(C#N)cc(C)c1NC(=O)c1cc(Cn2cc(C(F)(F)F)nn2)nn1-c1ncccc1Cl [Example 183] | 2.95 | 100 | 100
Cc1cc(Cl)cc(C(=O)NC(C)C)c1NC(=O)c1cc(Cn2cc(C(F)(F)F)nn2)nn1-c1ncccc1Cl [Example 190] | 3.06 | 100 | 100
Cc1cc(Cl)cc(C(=O)NCC2CC2)c1NC(=O)c1cc(Cn2cc(C(F)(F)F)nn2)nn1-c1ncccc1Cl [Example 195] | 3.22 | 100 | 100
CC(NC(=O)c1cc(Cl)cc(Cl)c1NC(=O)c1cc(Cn2cc(C(F)(F)F)nn2)nn1-c1ncccc1Cl)C1CC1 (stereo not drawn) [Example 198] | 3.38 | 100 | 100
CSC[C@H](C)NC(=O)c1cc(Cl)cc(Cl)c1NC(=O)c1cc(Cn2cc(C(F)(F)F)nn2)nn1-c1ncccc1Cl [Example 202] | 3.28 | 100 | 100
O=C(NCC1CC1)c1cc(Cl)cc(Cl)c1NC(=O)c1cc(Cn2cc(C(F)(F)F)nn2)nn1-c1ncccc1Cl [Example 204] | 3.14 | 100 | 100
N#CCNC(=O)c1cc(Cl)cc(Cl)c1NC(=O)c1cc(Cn2cc(C(F)(F)F)nn2)nn1-c1ncccc1Cl [Example 205] | 2.63 | 100 | 100
CNC(=O)c1cc(I)cc(C)c1NC(=O)c1cc(Cn2cc(C(F)(F)F)nn2)nn1-c1ncccc1Cl [Example 206] | 2.86 | 100 | 100
Cc1cc(I)cc(C(=O)NC(C)C2CC2)c1NC(=O)c1cc(Cn2cc(C(F)(F)F)nn2)nn1-c1ncccc1Cl (stereo not drawn) [Example 207] | 3.69 | 100 | 100
Cc1cc(I)cc(C(=O)NC2CC2)c1NC(=O)c1cc(Cn2cc(C(F)(F)F)nn2)nn1-c1ncccc1Cl [Example 208] | 3.15 | 100 | 100
CCNC(=O)c1cc(I)cc(C)c1NC(=O)c1cc(Cn2cc(C(F)(F)F)nn2)nn1-c1ncccc1Cl [Example 209] | 3.04 | 100 | 100
Cc1cc(I)cc(C(=O)NC(C)C)c1NC(=O)c1cc(Cn2cc(C(F)(F)F)nn2)nn1-c1ncccc1Cl [Example 210] | 3.38 | 100 | 100
Cc1cc(I)cc(C(=O)NC(C)(C)C)c1NC(=O)c1cc(Cn2cc(C(F)(F)F)nn2)nn1-c1ncccc1Cl [Example 211] | 3.72 | 100 | 100
Cc1cc(I)cc(C(=O)NCC2CC2)c1NC(=O)c1cc(Cn2cc(C(F)(F)F)nn2)nn1-c1ncccc1Cl [Example 214] | 3.45 | 100 | 100
